Data as given in paper PMC3140938 (Analytical and Bioanalytical Chemistry, 2011).
“Also recorded” adds a separate entry of the source. Like-named read-outs stand apart in the source and are kept apart here.

Legend:
[1] = target: T1, human glucocorticoid receptor alpha (hGRα) (Homo sapiens, UniProt P04150); assay type: cell-based; details: yeast
T1 sequence (P04150 1-777): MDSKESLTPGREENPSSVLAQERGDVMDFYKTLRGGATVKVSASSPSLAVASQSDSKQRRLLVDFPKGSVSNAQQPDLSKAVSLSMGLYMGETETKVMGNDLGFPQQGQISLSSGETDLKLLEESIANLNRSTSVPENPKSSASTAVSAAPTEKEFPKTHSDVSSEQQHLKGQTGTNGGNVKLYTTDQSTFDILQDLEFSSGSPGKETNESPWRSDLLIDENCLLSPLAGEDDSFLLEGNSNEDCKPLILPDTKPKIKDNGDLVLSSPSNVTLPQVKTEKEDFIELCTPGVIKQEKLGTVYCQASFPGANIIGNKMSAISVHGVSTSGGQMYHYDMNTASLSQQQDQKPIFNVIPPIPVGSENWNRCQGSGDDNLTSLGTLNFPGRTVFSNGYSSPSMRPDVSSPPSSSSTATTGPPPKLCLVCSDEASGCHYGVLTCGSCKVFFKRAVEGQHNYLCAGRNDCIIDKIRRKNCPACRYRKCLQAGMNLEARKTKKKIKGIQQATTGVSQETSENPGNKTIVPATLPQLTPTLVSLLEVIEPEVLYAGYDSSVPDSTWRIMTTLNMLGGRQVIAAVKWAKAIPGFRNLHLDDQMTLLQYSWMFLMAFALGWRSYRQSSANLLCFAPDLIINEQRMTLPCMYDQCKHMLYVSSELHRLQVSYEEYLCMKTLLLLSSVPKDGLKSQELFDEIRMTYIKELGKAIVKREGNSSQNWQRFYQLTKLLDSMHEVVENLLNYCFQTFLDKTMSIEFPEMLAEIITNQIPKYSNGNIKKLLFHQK

hGRα [2] = target: T2, hGRα (Homo sapiens, UniProt P04150); assay type: cell-based; details: GR-CALUX, co-exposure with 1 or 10 nM dexamethasone
T2 sequence (P04150 1-777): T1 sequence (P04150 1-777)

hGRα [3] = target: T2, hGRα; experiment: cell-based; assay type: cell-based; details: for RCP (relative corticoid potency): ratio EC50 of dexamethasone / EC50 of compound
[4] = target: T1, human glucocorticoid receptor alpha (hGRα); experiment: cell-based; assay type: cell-based
AR [5] = details: U2-OS-based CALUX analogue (AR); cited from earlier work
AR [6] = details: yeast-based AR bioassay; cited from earlier work
PR = details: yeast-based PR bioassay; cited from earlier work
[7] = co-exposure with 150 or 500 μM dexamethasone
[8] = GR-CALUX, agonism, 24 h exposure
[9] = co-exposure with budesonide (5 or 50 μM)

## CC#C[C@]1(O)CC[C@H]2[C@@H]3CCC4=CC(=O)CCC4=C3[C@@H](c3ccc(N(C)C)cc3)C[C@@]21C [Mifepristone, mifepristone]
[1]; [7]
  GR antagonism, in words: only slightly acted as GR antagonists
hGRα [2]
  GR antagonism, in words: pure GR antagonists
hGRα [3]
  EC50: Not active^b

## C[C@H]1C[C@H]2[C@@H]3CCC4=CC(=O)C=C[C@]4(C)[C@@]3(F)[C@@H](O)C[C@]2(C)[C@@]1(O)C(=O)CO [Betamethasone, betamethasone]
[4]
  agonistic response (production of yEGFP), in words: dose-related increase in the production of yEGFP
hGRα [3]
  agonistic response (luciferase activity), in words: dose-related increase in luciferase activity

## C[C@]12CC[C@@H]3c4ccc(O)cc4CC[C@H]3[C@@H]1CC[C@@H]2O [17β-Estradiol (E2), 17β-estradiol]
[4]
  EC50: Not active
  RCP (relative corticoid potency): 0.0
  agonistic response (production of yEGFP), in words: no agonistic response
hGRα [3]; [8]
  EC50: Not active
hGRα [3]; GR-CALUX
  RCP (relative corticoid potency): 0

## C[C@]12CCC(=O)C[C@@H]1CC[C@@H]1[C@@H]2CC[C@]2(C)[C@@H](O)CC[C@@H]12 [5α-Dihydrotestosterone, 5α-dihydrotestosterone]
hGRα [3]
  EC50: Not active

## C[C@]12CCC(=O)C=C1CC[C@@H]1[C@@H]2C(=O)C[C@@]2(C)[C@H]1CC[C@]2(O)C(=O)CO [Cortisone, cortisone]
[4]
  EC50: Not active
  RCP (relative corticoid potency): 0.0
  agonistic response (production of yEGFP), in words: no response
hGRα [3]; [8]
  EC50: Not active
hGRα [3]; compound alone, GR-CALUX
  agonistic response (luciferase activity), in words: no response
hGRα [3]; GR-CALUX
  RCP (relative corticoid potency): 0

## CN(C)c1ccc([C@H]2C[C@@]3(C)[C@@H](CC[C@@]3(O)C#Cc3ccc(S(C)(=O)=O)cc3)[C@@H]3CCC4=CC(=O)CCC4=C32)cc1 [Org 34850]
[1]; [7]
  GR antagonism, in words: only slightly acted as GR antagonists
hGRα [2]
  GR antagonism, in words: pure GR antagonist

## C[C@]12C=CC(=O)C=C1CC[C@H]1[C@@H]3C[C@@H](O)[C@](O)(C(=O)CO)[C@@]3(C)C[C@H](O)[C@@]12F [Triamcinolone, triamcinolone]
[4]
  EC50: Active^a
  RCP (relative corticoid potency): Active
hGRα [3]
  EC50: 19 nM
hGRα [3]; GR-CALUX
  RCP (relative corticoid potency): 0.1

## Clc1ccc(-c2c(Cl)cc(Cl)cc2Cl)c(Cl)c1 [PCB100]
[1]; [9]
  GR antagonism, in words: only act as GR antagonists

## CCCC1O[C@@H]2C[C@H]3[C@@H]4CCC5=CC(=O)C=C[C@]5(C)[C@H]4[C@@H](O)C[C@]3(C)[C@]2(C(=O)CO)O1 (stereo partly drawn) [Budesonide, budesonide]
[4]
  agonistic response (production of yEGFP), in words: dose-related increase in the production of yEGFP; also recorded: much more potent than Dex
  limit of detection: 0.5 µM
hGRα [3]; compound alone, GR-CALUX
  agonistic response (luciferase activity), in words: equally potent

## C[C@]12CCC(=O)C=C1CC[C@@H]1[C@@H]2[C@@H](O)C[C@]2(C=O)[C@@H](C(=O)CO)CC[C@@H]12 [Aldosterone]
[4]
  RCP (relative corticoid potency): 0.2
  agonistic response (production of yEGFP), in words: dose-related increase in the production of yEGFP
[4]; EC50
  EC50: 705000 nM
hGRα [3]
  EC50: 495 nM
hGRα [3]; compound alone, GR-CALUX
  agonistic response (luciferase activity), in words: dose-related increase in luciferase activity
hGRα [3]; GR-CALUX
  RCP (relative corticoid potency): 0.004

## C[C@@H]1C[C@H]2[C@@H]3CCC4=CC(=O)C=C[C@]4(C)[C@@]3(F)[C@@H](O)C[C@]2(C)[C@@]1(O)C(=O)CO [Dexamethasone, dexamethasone]
[4]
  agonistic response (production of yEGFP), in words: dose-related increase in the production of yEGFP
hGRα [3]
  agonistic response (luciferase activity), in words: dose-related increase in luciferase activity

## C[C@]12C=CC(=O)C=C1CC[C@@H]1[C@@H]2[C@@H](O)C[C@@]2(C)[C@H]1CC[C@]2(O)C(=O)CO [Prednisolone, prednisolone]
[4]
  agonistic response (production of yEGFP), in words: dose-related increase in the production of yEGFP
hGRα [3]
  agonistic response (luciferase activity), in words: dose-related increase in luciferase activity

## Clc1ccc(Cl)c(-c2cc(Cl)c(Cl)cc2Cl)c1 [PCB101]
[4]
  agonistic response (production of yEGFP), in words: agonistic effect that is almost comparable with that of triamcinolone and progesterone
[1]; co-exposure with 5 μM budesonide
  inhibition of the response caused by 5 μM budesonide, in words: almost fully inhibiting
[1]; co-exposure with 50 μM budesonide
  inhibition of the response caused by 50 μM budesonide: 50%
[1]; [9]
  GR antagonism, in words: strongest GR antagonist

## CC(=O)OCC(=O)[C@@]1(O)CC[C@H]2[C@@H]3CCC4=CC(=O)CC[C@]4(C)[C@@]3(F)[C@@H](O)C[C@@]21C [Fludrocortisone-21-acetate, fludrocortisone-21-acetate]
[4]
  EC50: Not active
hGRα [3]; compound alone, GR-CALUX
  agonistic response (luciferase activity), in words: active

## Clc1ccc(Cl)c(-c2cc(Cl)cc(Cl)c2Cl)c1 [PCB92]
[4]
  agonistic response (production of yEGFP), in words: slight agonistic effect
[1]; [9]
  GR antagonism, in words: acts as a GR antagonist

## C[C@]12CCC(=O)C=C1CC[C@@H]1[C@@H]2[C@@H](O)C[C@@]2(C)[C@H]1CC[C@]2(O)C(=O)CO [Cortisol, cortisol]
[4]
  agonistic response (production of yEGFP), in words: dose-related increase in the production of yEGFP
hGRα [3]; compound alone, GR-CALUX
  agonistic response (luciferase activity), in words: dose-related increase in luciferase activity

## Clc1ccc(-c2ccc(Cl)cc2Cl)c(Cl)c1 [PCB47]
[1]; [9]
  GR antagonism, in words: only act as GR antagonists

## C[C@]12C[C@H](O)[C@H]3[C@@H](CCC4=CC(=O)CC[C@@]43C)[C@@H]1CC[C@@H]2C(=O)CO [Corticosterone, corticosterone]
[4]
  RCP (relative corticoid potency): 1.7
  agonistic response (production of yEGFP), in words: dose-related increase in the production of yEGFP
[4]; EC50
  EC50: 71000 nM
hGRα [3]
  EC50: 80 nM
hGRα [3]; compound alone, GR-CALUX
  agonistic response (luciferase activity), in words: dose-related increase in luciferase activity
hGRα [3]; GR-CALUX
  RCP (relative corticoid potency): 0.03
